Experimental findings from ChEMBL document CHEMBL1777790, “Discovery of novel HCV polymerase inhibitors using pharmacophore-based virtual screening” (Bioorg Med Chem Lett, 2011) are described below.

Data set [1] relates to Hepatitis C virus. The data set can be described thus: Antiviral activity against HCV in human HuH7 cells by replicon assay. In kind it is functional, organism-based, Hepacivirus hominis. The conditions noted are these: Huh-7; for Activity: Hepacivirus hominis. In general terms: A replicon is a self-replicating genome or part of one, used to study replication in cells.
Data set [2] deals with Hepatitis C virus subtype 1b. Nature of the data set: Inhibition of HCV genotype 1b NS5B RNA dependent RNA polymerase activity at 20 uM.
A short description of data set [3]: Cytotoxicity against human HuH7 cells. In kind it is cell-based, Huh-7.

pEC50: −log10 of the molar value. Activity calls are given as the source filed them. The rule behind the calls is not given here.

Turning to `Cn1ncc([N+](=O)[O-])c1C(=O)Nc1ccc2[nH]c(-c3ccccc3)nc2c1`, in data set [1], the pEC50 was 5.67. In data set [2], this molecule returned an inhibition of 54%. Besides, in data set [3], the CC50 worked out at 34.5 µM.

In data set [3], `CCOc1cc(NC(=O)CCl)c(OCC)cc1NC(C)=O` yielded a CC50 greater than 50 µM.

Consider `C=C(C)C(=O)Nc1ccc(NC(=O)C(=C)C)c(OC(F)(F)C(F)F)c1`, for which, in data set [1], the result was inactive. The molecule further displayed an inhibition in data set [2] of 48%. In addition, the CC50 in data set [3] was 29 µM. As to `O=C(Nc1ccc2[nH]c(-c3cccnc3)nc2c1)c1ccco1`, the outcome in data set [1] was inactive. Further, the CC50 in data set [3] is 20 µM. In the case of `CC(=O)Nc1ccc2[nH]c(-c3cccs3)nc2c1`, in data set [1], the result was inactive. Besides, the inhibition in data set [2] was determined as 18.5%. In data set [3], the CC50 is 20 µM. The corresponding values for `O=C(Nc1ccc2[nH]c(-c3ccccc3)nc2c1)c1ccccc1` are “inactive”, 20% and 20 µM.

Turning to `CC(=O)Nc1ccc2[nH]c(-c3ccccn3)nc2c1`, in data set [1], the result was inactive.

As for `C=CCNC(=O)c1ccc(CN(c2cccc(Cl)c2)S(C)(=O)=O)cc1`, the CC50 in data set [3] was found to be 33 µM. This counts as double-digit micromolar. The same measure, in the same setting: as for `O=C(Nc1ccc(F)cc1)c1ccc(Cl)c(S(=O)(=O)N2CCOCC2)c1`, the figure is 15.6 µM; as for `O=C(Nc1ccc(NC(=O)c2cccs2)cc1Cl)c1ccco1`, 18 µM.

In the case of `COC(=O)c1ccc(C(=O)OC)c(NS(C)(=O)=O)c1`, half-maximal cytotoxicity in data set [3] (CC50) was put at 43.5 µM. As for `Cn1cc([N+](=O)[O-])c(C(=O)Nc2ccc3[nH]c(-c4ccccc4)nc3c2)n1`, the pEC50 in data set [1] was 5.08. This molecule also registered an inhibition in data set [2] of 37.7%. This molecule also returned a CC50 in data set [3] of 17.3 µM. `CC(=O)Nc1ccc2nc(-c3ccccn3)[nH]c2c1`: in data set [3], the CC50 amounted to 24.8 µM. For `COC(=O)c1ccc(C(=O)Nc2ccc3[nH]c(-c4ccccc4)nc3c2)cc1`, the outcome in data set [1] was inactive. This molecule returned an inhibition in data set [2] of 90%. In data set [3], this molecule returned a CC50 of less than 5 µM.

As for `CCOc1cc(NC(=O)c2ccco2)c(OCC)cc1NC(=O)CC`, in data set [3], half-maximal cytotoxicity (CC50) was put at 36.1 µM. As for `CS(=O)(=O)N(Cc1ccccc1)c1ccc(C(=O)NCc2ccco2)cc1`, the inhibition in data set [2] was determined as 8%. Also, in data set [3], the CC50 is 32.7 µM. Consider `CC(=O)Nc1ccc2[nH]c(-c3ccco3)nc2c1`, for which the result in data set [1] was inactive. Besides, in data set [2], the inhibition came out at 42%. Further, it took 25 µM to reach half-maximal cytotoxicity in data set [3] (CC50).

`COc1cc(/C=N/Nc2nc3ccccc3s2)ccc1OC(=O)c1ccco1` yielded a CC50 in data set [3] of 30.5 µM. `CCC(=O)Nc1ccc(SC#N)c(C(F)(F)F)c1`: the inhibition in data set [2] turned out to be 9%. The molecule also displayed a CC50 in data set [3] of 45.8 µM.

In turn, `O=C(COc1ccccc1Cl)Nc1ccc(Oc2ccc(F)cc2)c(C(F)(F)F)c1` had a CC50 in data set [3] of 14.2 µM. Consider `O=C(Nc1ccc2[nH]c(-c3ccc(Cl)cc3)nc2c1)C1C2CC3CC(C2)CC1C3` (centres undefined), for which, in data set [1], the result was inactive. In addition, the inhibition entry in data set [2] is “inactive”. The half-maximal cytotoxic concentration (CC50) in data set [3] is less than 5 µM. In data set [2], `O=C1NN(c2ccc(Cl)c(Cl)c2)C(=O)/C1=C/c1ccc(N2CCOCC2)c([N+](=O)[O-])c1` returned an inhibition of 13%. This molecule also registered a CC50 in data set [3] of 27 µM. Regarding `Cn1ncc(Cl)c1C(=O)Nc1ccc2[nH]c(-c3ccccc3)nc2c1`, in data set [1], the result was inactive. The same molecule showed an inhibition in data set [2] of 14%. Also, in data set [3], the cytotoxic concentration (CC50) was less than 5 µM. On to `CCCS(=O)(=O)c1ccc2[nH]c(NC(=O)OC)nc2c1`, for which the CC50 in data set [3] was less than 5 µM.

With `O=C(Nc1ccc2[nH]c(-c3ccccn3)nc2c1)c1ccco1`, in data set [1], the result was inactive. In data set [2], this molecule gave an inhibition of 42.4%. The molecule also had a CC50 in data set [3] of 20 µM. Turning to `Nc1ccc(C(=O)Nc2ccc3[nH]c(-c4ccccc4)nc3c2)cc1`, the outcome in data set [1] was inactive. Moreover, in data set [2], the inhibition is 19.7%. The molecule further gave a CC50 in data set [3] of less than 5 µM.

In turn, `O=C(Nc1cccc(Br)c1)c1ccc(Br)c(S(=O)(=O)Nc2ccccn2)c1` came in with a CC50 in data set [3] greater than 50 µM. On the same count and under the same terms, as for `C=CCNS(=O)(=O)c1ccc(OC)c(OC)c1`, the figure is 48.6 µM. For `O=C(Nc1ccc2[nH]c(-c3ccccc3)nc2c1)c1ccco1`, the result in data set [1] was inactive. In data set [2], the inhibition result is “inactive”. Further, in data set [3], the CC50 is less than 5 µM. `O=C(O)CNC(=O)/C(=C\c1cccc([N+](=O)[O-])c1)NC(=O)c1ccc(Br)o1` had a CC50 in data set [3] greater than 50 µM. The same measure, in the same setting: as for `Cc1ccc(C(=O)Nc2ccc(F)cc2)cc1S(=O)(=O)N1CCOCC1`, the figure is 16.5 µM.

By pEC50 is commonly meant −log10 of the EC50, conventionally taken in molar units. High values mean a low EC50, low ones a high EC50. Broadly, the inhibition is the change of the read-out against control, counted positive when it falls. One may read the CC50 as the concentration at which the toxic effect on the cells reaches its halfway point. Lower therefore signals harm at low concentration.
